Consider two compounds from patent publication US10993957B2 (NuCana plc, priority 2011, dated 2021).

The subject of one data set is U87.Hyor. The data set can be described thus: Cytostatic assay, Mycoplasma hyorhinis-infected U87 cells. The data set is classed as cell-based, human. Particulars: for IC50: Homo sapiens, U-87 MG, read-out: IC50 U87.Hyor.
The target of data set [1] is thymidylate synthase (TS) (Mus musculus, UniProt P07607). The data set can be described thus: TS activity in intact L1210/0 cells (tritium release). The data set is classed as cell-based, murine. To be noted: for increase of inhibition of 3H release upon longer preincubation times: up to 4 hr versus 30 min. As for the experimental part: The activity of TS in intact L1210/0 and L1210/TK^− cells was measured by evaluation of tritium release from [5-^3H]dUMP (formed in the cells from [5-^3H]dUrd or [5-^3H]dCyd) in the reaction catalysed by TS. This method has been described in detail by Balzarini & De Clercq (1984). […] After 30 min, 2 h and 4 h preincubation of the cells with the compounds at 37° C., 1 μCi of [5-^3H]dUrd or [5-^3H]dCyd was added to the cell cultures. After 30 min incubation, 100 μL of the cell suspensions were withdrawn and added to a cold suspension of 500 μL activated charcoal (VWR, Haasrode, Belgium) (100 mg/ml in TCA 5%). After 10 min, the suspension was centrifuged at 13,000 rpm for 10 min, after which the radioactivity in 400 μL supernatant was counted in a liquid sinctillator using OptiPhase HiSafe (Perkin Elmer, Waldham, Mass.).
The activity of TS in intact tumour cells can be directly monitored by measuring the tritium release in intact L1210/0 cell cultures that were exposed to [5-^3H]deoxyuridine ([5-^3H]dUrd) or [5-^3H]deoxycytidine ([5-^3H]dCyd). Indeed, after intracellular conversion of [5-^3H]dUrd or [5-^3H]dCyd to [5-^3H]dUMP, the C-5 tritium atom on the pyrimidine base is released during the TS-catalysed reductive methylation.

A further data set has as its system Cem/TK^−. Kind of data set: Cytostatic assay, thymidine kinase-deficient CEM/TK^− cells. Type of data set: cell-based, human. To be noted: Homo sapiens, CEM-TK(-).
Data set [2] is described as follows: Stability in buffer at pH 1 by 31P NMR. Type of data set: physicochemical. To be noted: 14 hours. As for the experimental part:
The stability of the prodrug CPF-373 towards hydrolysis at pH=1 was studied using in situ ^31P NMR (202 MHz). The ProTide CPF-373 (1) (2.6 mg) was dissolved in MeOD (0.1 mL) after which 0.5 mL buffer (pH=1) (prepared from equal parts of 0.2 M HCl and 0.2 M KCl) was added. Then the sample was transferred into an NMR tube, and a ^31P NMR experiment was performed at 37° C. recording the data every 12 minutes for 14 hours. Data were processed and analysed with the Bruker Topspin 2.1 program.
(§1) A chemical hydrolysis was evaluated under experimental conditions at pH 1 and pH 8 and monitored by ^31P NMR. During the assay (14 h) under acidic conditions (pH 1) only two peaks representing the two diastereoisomers were recorded.

Data set [3] is described as follows: Stability in human serum by in situ 31P NMR. Type of data set: in vitro ADME. To be noted: 37° C., after 12 hours and 30 minutes. Here is the method: The stability of the prodrug CPF-373 in the presence of human serum was studied using in situ ^31P NMR (202 MHz). The ProTide CPF-373 (1) (5.0 mg) was dissolved in DMSO (0.05 mL) and D2O (0.15 mL). Then the sample was transferred into an NMR tube, which was inserted in the NMR chamber at 37° C. (with enough solvent to obtain a control NMR reading of the blank). Then 0.3 ml human serum was quickly added to the sample in the NMR tube. NMR experiments were programmed to record data every 15 minutes for 12 hours and 30 minutes. Because of excess noise and poor shimming profiles (most likely due to the biological media and concentration), individual spectra were further processed. After normal Fourier transform processing, each spectrum was deconvoluted (Lorentz-Gauss deconvolution) to reveal solely the frequency and area of spectral peaks without the baseline. Data recorded were processed and analysed with the Bruker Topspin 2.1 program.
Chemical stability studies on the prodrug CPF-373 (1) have been performed by exposing the compound to human serum and to aqueous buffers (pH 1.0 and 8.0) using in situ ^31P NMR. […]
The stability of compound CPF 386 in the presence of human serum was investigated using in situ ^31P NMR. A control ^31P NMR data of compound CPF 386 in DMSO and D2O were recorded. […] The ^31P NMR data were recorded every 15 minutes over 14 h. […]

Data set [4] in a line: Stability in buffer at pH 8 by 31P NMR. To be noted: 14 hours. The data set is classed as physicochemical. Here is the method: The stability of the prodrug CPF-373 towards hydrolysis at pH=8 was studied using in situ ^31P NMR (202 MHz). The ProTide CPF-373 (1) (4.9 mg) was dissolved in MeOD (0.1 mL) after which 0.5 mL buffer (pH=8) (prepared from a solution of 0.1 M Na2HPO4, which was adjusted by 0.1 M HCl) was added. Then the sample was transferred into an NMR tube, and a ^31P NMR experiment was performed at 37° C. recording the data every 12 minutes for 14 hours. Data were processed and analysed with the Bruker Topspin 2.1 program.
as §1

Another data set has as its target human UP (Homo sapiens, UniProt Q16831). Kind of data set: Phosphorolysis by human UP, HPLC. Particulars: 100 μM compound, room temperature, 0-40 min. As for the experimental part:
Reaction mixtures containing 100 μM test compound and recombinant TP or UP (human TP: 8.6 ng/μL; E. coli TP: 3.0 ng/μL; human UP: 4 ng/mL) in a total volume of 500 μL reaction buffer (10 mM TrisHCl; 300 μM NaCl; 1 mM EDTA; 2 mM KH2PO4/K2HPO4) were incubated at room temperature. At different time points (i.e. 0, 20, 40 min) 100 μL aliquots of the reaction mixtures were withdrawn and heated at 95° C. for 3 min to inactivate the enzyme. […] The separation of Urd from uracil was performed by a linear gradient from 100% separation buffer (see above) to 60% separation buffer+40% acetonitrile (3 min 100% separation buffer; 6 min linear gradient of 100% separation buffer to 60% separation buffer+40% acetonitrile; 6 min 60% separation buffer+40% acetonitrile, followed by equilibration at 100% separation buffer).

[5] abbreviates: L1210/0, 30 min preincubation, both substrates, read-out: IC50 for tritium release from [5-3H]dCyd and [5-3H]dUrd.
The mark [6] stands for this setting: intact L1210/0 cells, 30 min exposure, read-out: IC50 Tritium release from dCyd*.
[7] abbreviates: intact L1210/0 cells, 30 min exposure, read-out: IC50 Tritium release from dUrd*.
The mark [8] stands for this setting: tritium release from [5-3H]dCyd, 4 hours preincubation, read-out: IC50 against TS, L1210/0.

Where two headings read alike, the source gives them in different places.

Sequence of thymidylate synthase (TS) (P07607 whole entry): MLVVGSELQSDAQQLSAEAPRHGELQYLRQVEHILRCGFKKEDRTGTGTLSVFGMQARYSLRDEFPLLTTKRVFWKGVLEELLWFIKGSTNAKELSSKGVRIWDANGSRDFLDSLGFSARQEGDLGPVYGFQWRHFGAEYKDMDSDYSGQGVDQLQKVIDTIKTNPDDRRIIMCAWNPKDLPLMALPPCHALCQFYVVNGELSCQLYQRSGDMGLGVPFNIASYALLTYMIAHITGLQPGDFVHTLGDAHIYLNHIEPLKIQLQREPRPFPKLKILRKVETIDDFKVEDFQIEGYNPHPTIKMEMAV
Sequence of human UP (Q16831 whole entry): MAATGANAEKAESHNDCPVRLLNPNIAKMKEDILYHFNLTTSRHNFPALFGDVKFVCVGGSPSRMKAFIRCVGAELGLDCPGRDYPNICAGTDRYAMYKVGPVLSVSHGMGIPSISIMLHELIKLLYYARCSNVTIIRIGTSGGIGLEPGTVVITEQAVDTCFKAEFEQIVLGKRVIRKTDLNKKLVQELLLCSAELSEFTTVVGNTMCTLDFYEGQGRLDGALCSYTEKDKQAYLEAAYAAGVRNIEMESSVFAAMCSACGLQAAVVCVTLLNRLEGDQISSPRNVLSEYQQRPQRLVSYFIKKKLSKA
Description for U87.Hyor: All cells were maintained in Dulbecco's modified Eagle's medium (DMEM) (Invitrogen, Carlsbad, Calif.) with 10% foetal bovine serum (FBS) (Biochrom AG, Berlin, Germany), 10 mM Hepes and 1 mM Sodium Pyruvate (Invitrogen). Cells were grown at 37° C. in a humidified incubator with a gas phase of 5% CO2.
Monolayer cells (U87 and U87.Hyor) were seeded in 48-well microtiter plates (Nunc™, Roskilde, Denmark) at 10,000 cells/well. After 24 hours, an equal volume of fresh medium containing the test compounds was added. On day 5, cells were trypsinized and counted in a Coulter counter (Analis, Suarlée, Belgium). Suspension cells (L1210/0, L1210/TK^−, L1210.Hyor, CEM/0, CEM/TK^−) were seeded in 96-well microtiter plates (Nunc™) at 60,000 cells/well in the presence of a given amount of the test compounds. The cells were allowed to proliferate for 48 h (L1210) or 72 hours (CEM) and were then counted in a Coulter counter.

For the compound `O=c1[nH]c(=O)n([C@H]2C[C@H](O)[C@@H](CO)O2)cc1F` [5-FdUrd, 5-fluoro-2′-deoxyuridine, reference compound], the “loss of cytostatic activity in U87.Hyor versus uninfected U87 cells” value with U87.Hyor stood at 400 fold. In addition, the IC50 is 3000 ± 550 nM in the data set with U87.Hyor (Table 3); 0.7 to 0.9 nM in data set [1] (setting [5]); 0.7 nM in data set [1] (setting [6]); 0.9 ± 0.2 nM in data set [1] (setting [7]); 0.3 nM in data set [1] (setting [8]). For the same compound, the “increase of inhibition of 3H release upon longer preincubation times” value in data set [1] was determined as 2 fold.

As for `C[C@H](NP(=O)(OC[C@H]1O[C@@H](n2cc(F)c(=O)[nH]c2=O)CC1O)Oc1cccc2ccccc12)C(=O)OCc1ccccc1` (stereo partly drawn) [CPF 373, 5-Fluoro-2′deoxyuridine-5′-O-[1-naphthyl (benzoxy-L-alaninyl)] phosphate], the IC50 was 320 nM in the data set with Cem/TK^− (Table 3, read-out: IC50 CEM/TK−); 310 ± 60 nM in the data set on Cem/TK^− (Table 6, read-out: IC50 Cem/TK^−); 39 nM with U87.Hyor; 160 to 190 nM in data set [1] (setting [5]); 190 ± 80 nM in data set [1] (setting [6]); 160 ± 50 nM in data set [1] (setting [7]). The IC50 in data set [1] (setting [8]) turned out to be 13 nM. The “Stability towards hydrolysis at pH 1” value in data set [2] was “full stability”. The “unchanged compound after incubation in human serum” value in data set [3] is reported as 73%. Further, in data set [1] (30 min preincubation), the “inhibitory activity on tritium release less pronounced than that of 5-FdUrd” value is recorded as about 200 fold. The “increase of inhibition of 3H release upon longer preincubation times” value in data set [1] is recorded as 10 fold. For the same compound, the “Stability towards hydrolysis at pH 8” value in data set [4] is listed as “full stability”. Further, the “Phosphorolysis by human UP” value at human UP is recorded as “not affected”.
